Results on two compounds are retold here after patent US10639380B2, “Flavivirus-binding, entry-obstructing, protease-resistant peptide (RI57)” (priority 2016, dated 2020).

Peptide text beside a SMILES is read from it.

Data set [1] relates to DENV2. The experiment in a line: Pre-binding FFU assay (reversibility of peptide binding). It counts as cell-based, dengue virus. How it is done: Experiments were conducted further to characterize observed inhibitory effects and determine whether these may have been due to unintended interference owing to modifications of target LLC-MK2 cell surfaces. RI57 was incubated with target cells for 1 h at 4° C., the monolayer cells were then rinsed with PBS, and approximately 200 FFU of DENV2 allowed to infect the cells at 4° C. Agarose overlays, incubation, and immunological detection tests were conducted as described above for the focus-forming assay.
In this assay, DN57 or RI57 was added to target cells for 1 h prior to infection with DENV2 to determine whether these peptides inhibit entry through interaction directly with target cells. […] Table 5. (and also FIG. 7) presents results showing that peptide binding can be reversible. (and FIG. 5.). Introducing a step diluting the concentration of peptide 10-fold after incubating/1 h at 20° C. and then infecting immediately thereafter reverses this inhibition. Errors around the means are depicted as ±sd.

Data set [2] concerns DENV2. As to the kind of experiment: Post-binding FFU assay. The data set is classed as cell-based, dengue virus. The note with it: DN57 added after virus bound at 4° C.; data not shown, see Costin, et al., 2010. How it is done:
Experiments were conducted further to characterize observed inhibitory effects as to whether these may have been due to interference with interactions occurring pre-binding, versus post-binding, of virions and LLC-MK2 target cells. An estimated 200 FFU of DENV2 were allowed to interact with target cells for 1 h at 4° C., permitting binding while preventing internalization. Unbound virus was washed off with PBS at 4° C., DN57 added, and the cultures incubated at 4° C. for 1 h, again washed in 4° C. PBS, and then warmed to 37° C. Finally, agarose overlays, incubation, and immunological detection assays were performed as described for the focus-forming assay.
Inasmuch as it was determined that inhibition by DN57 occurs at a viral-entry step, whether infection could still be inhibited after virus had bound to the surface of target cells was tested. In these experiments, virus was allowed to bind to cells at 4° C., then treated with increasing concentrations of DN57 before warming the cells to 37° C. providing conditions in favor of viral progression.

In another data set the test system is trypsin. The note with it: peptide incubated in trypsin at 37° C. before adding STI. On the procedure:
The image documents 10-20% gradient gels run electrophoretically (e-gel), labeled with Imperial Protein Stain, and photographed. An e-gel was performed for each peptide, stained with Imperial stain, and photographed. The arrow markers show both the identity of the peptide run and its final location after migration. For each peptide assessment, lanes 1 contain peptide alone; lanes 2, peptide plus soybean trypsin inhibitor (STI); and lanes 3, peptide incubated in trypsin at 37° C. before adding STI.

Data set [3] relates to DENV2. The experiment in a line: qRT-PCR virus-binding assay. It counts as cell-based, dengue virus. How it is done: Further to characterize DENV binding to host cells, experiments were conducted to analyze the first step in the process of infection. Infection of LLC-MK2 target cells in six-well plates was executed in duplicate using 10^5 FFU of DENV2 pre-incubated 45 min at 4° C. with either DN57, or RI57 peptide, or pooled heterotypic anti-DENV human serum. Following said 45 min exposure at 4° C., infected monolayers were washed with PBS and harvested by cell scraping, added to a 1.5 ml microfuge tube containing 350 μl AR-200 silicone oil (Sigma-Aldrich, St. Louis, Mo.), mixed with 150 μl silicone fluid (Thomas, Swedesboro, N.J.), and microfuge spun 1 min at 14,000 rpm to separate unbound virus from cell-bound virus. The tubes were then submerged in liquid nitrogen for 30 sec to freeze the contents. The cell pellets with (or without) bound virus were recovered by removing the bottoms of the tubes with small wire clippers and placing them in 15 ml conical tubes. By means of the Qiagen Viral RNA Extraction Kit (Qiagen, Chatsworth, Calif.), viral RNA was extracted from cell pellets.
Using the Quantitect SYBR Green RT-PCR kit (Qiagen Inc., Chatsworth, Calif.), qRT-PCR was performed on the extracted RNA. Manufacturer's specifications and amplification protocols were followed utilizing dengue-specific primers: (DenF: 5-[…]-3 and DenR: 5-[…]-3). […] The following amplification protocol was used: 50° C. for 20 min to reverse transcribe the RNA; 95° C. for 15 min to activate the HotStart Taq DNA Polymerase; 45 PCR cycles: 94° C. for 15 sec; 50° C. for 15 sec; 72° C. for 30 sec; and fluorescence data acquisition was the final step. […]
To test whether DN57 and RI57 interfere directly with virus binding to target cells, binding assays were conducted using qRT-PCR to monitor attachment of virus to target cells. […] RNA was then extracted from the cell pellets and amplified with DENV2-specific primers to quantitate the presence of virus. […]
Background: Real-time PCR tracks product formation cycle by cycle.

The next data set in a line: in vitro. The conditions noted are these: rhesus monkey, LLC-MK2 cells (confluent monolayers).
For data set [4], the system named is DENV2. As to the kind of experiment: LLC-MK2 FFU assay after trypsin exposure of peptide. It counts as cell-based, dengue virus. How it is done: Table 7. […] The peptides were exposed to trypsin for ten minutes at 37° C. before STI was added and further incubated ten minutes. The resulting peptide, in each case, was incubated with DENV2 for 1 hour at 20° C. and then this preparation used to infect confluent LLC-MK2 monolayers.

The conditions of data set [5]: 1:2 dilution of NHS, 37° C., 24 h.
Protocol: Lane 1 contains peptide alone/time=0; lane 2, peptide at 37° C./time=24 h; lane 3, peptide in a 1:2 dilution of NHS/time=0; lane 4, peptide in a 1:2 dilution of NHS @ 37° C./time=24 h; and lane 5, a 1:2 dilution of NHS with no peptide at 37° C./time=24 h.
The test system of data set [6] is DENV2. The experiment in a line: Post-entry FFU assay. The conditions noted are these: any DN57 concentration; data not shown, see Costin, et al., 2010. It counts as cell-based, dengue virus. How it is done: Experiments were conducted further to characterize observed inhibitory effects to determine whether they actually may have been due to interference with post-entry steps in the viral life cycle. To this end, approximately 200 FFU of DENV2 (without DN57) were allowed the opportunity to bind and then enter target LLC-MK2 cells for 1 h at 37° C. as described for the focus-forming assay. Any unbound virus was then removed by rinsing with PBS. Next, DN57 was added to the cells post-entry for 1 h at 37° C. Cultures again were washed with PBS and agarose overlays, incubation, and immunological detection assessments were performed as described for the focus-forming assay.

The test system of data set [7] is DENV2. The note with it: as previously observed; cited from earlier work.

Protocol for in vitro: Possible direct cytotoxicity caused by peptide exposure to proliferating LLC-MK2 monolayers was measured using the TACS™ MTT cell proliferation assay (R&D Systems, Inc., Minneapolis, Minn.) according to the manufacturer's instructions. The MTT assay detects and measures mitochondrial reductase activity observable in viable cells. […] A Tecan GeniosPro plate reader (Tecan US, Durham, N.C.) was used to measure absorbance at 560 nm.
Error bars show ±standard deviations (±sd) of the means with an asterisk indicating instances of statistically-significant differences from control according to Dunnett's post hoc test (p<0.05).

What is called viability is a read-out of living cells in per cent, often relative to untreated cells. Low values mean more harm to the cells, high ones less harm to the cells. For the compound `CSCC[C@H](NC(=O)[C@H](Cc1c[nH]c2ccccc12)NC(=O)[C@@H](N)CCCNC(=N)N)C(=O)N[C@H](C(=O)N[C@@H](Cc1c[nH]c2ccccc12)C(=O)N[C@@H](CCCNC(=N)N)C(=O)N[C@@H](Cc1c[nH]cn1)C(=O)N[C@@H](Cc1c[nH]c2ccccc12)C(=O)N[C@@H](Cc1ccccc1)C(=O)N[C@@H](Cc1c[nH]cn1)C(=O)N[C@@H](CCCNC(=N)N)C(=O)N[C@@H](CC(C)C)C(=O)N[C@@H](CCCNC(=N)N)C(=O)N[C@@H](CC(C)C)C(=O)N1CCC[C@H]1C(=O)N[C@@H](Cc1ccc(O)cc1)C(=O)N[C@@H](CC(N)=O)C(=O)N1CCC[C@H]1C(=O)NCC(=O)N[C@@H](CCCCN)C(=O)N[C@@H](CC(N)=O)C(=O)N[C@@H](CCCCN)C(=O)N[C@@H](CCC(N)=O)C(=O)N[C@@H](CC(N)=O)C(=O)N[C@@H](CCC(N)=O)C(=O)N[C@@H](CCC(N)=O)C(=O)N[C@@H](Cc1c[nH]c2ccccc12)C(=O)N1CCC[C@H]1C(=O)O)C(C)C` [DN57, reference compound] (H-RWMVWRHWFHRLRLPYNPGKNKQNQQWP-OH; N-terminus and C-terminus assumed), the “% DENV2 Infection Inhibition” value in the data set on DENV2 [1] (PBS Rinse (text: peptide diluted 10-fold after incubation, then infecting)) is on record as −2.8%. In addition, in the data set with DENV2 [1] (incubation with 10 μM/1 h at 20° C., no rinse), the “% DENV2 Infection Inhibition” value amounted to 83.1%. In the data set on DENV2 [1] (peptide added to target cells for 1 h prior to infection), the “inhibition on treatment of target cells with peptide prior to DENV2 infection” value is on record as “no evidence of inhibition”. The “DENV-2 infection after virus binding to cells, before entry” value with DENV2 [2] is listed as “inhibits DENV-2 infection”. The “trypsin cleavage (e-gel)” value in the data set on trypsin is “degraded”. Also, the “% Infection Inhibition” value in the data set with DENV2 [3] (DENV2 + 20 uM peptide) amounted to 96.4%. The “% Infection Inhibition” value in the data set with DENV2 [3] (DENV2 + 20 uM peptide + Trypsin + STI) turned out to be 5.2%. In the data set on DENV2 [3] (virus co-incubated with peptide 45 min at 4° C.), the “binding of virus to cells” value is given as “inhibit binding of virus to cells”. In “in vitro”, this compound came in with a viability at 24 h, 0.1 µM of 100%; a viability at 24 h, 0.5 µM of 98.6%; a viability at 24 h, 1 µM of 100%; a viability at 24 h, 5 µM of 97.8%. In “in vitro”, this compound returned a viability at 24 h, 10 µM of 95.9%; a viability at 24 h, 15 µM of 92.8%; a viability at 24 h, 20 µM of 76.4%; a viability at 24 h, 25 µM of 80.2%. In “in vitro”, this compound registered a viability at 24 h, 30 µM of 54.7%; a viability at 24 h, 35 µM of 55.1%; a viability at 24 h, 40 µM of 50.6%. Besides, in the data set on DENV2 [4] (DENV2 + 20 uM peptide), the “% Infection Inhibition” value came to 96.4%. Further, the “% Infection Inhibition” value in the data set on DENV2 [4] (DENV2 + 20 uM peptide + Trypsin + STI (trypsin ten minutes at 37° C.)) is recorded as 5.2%. Also, in the data set with DENV2 [4] (trypsin ten minutes at 37° C. before STI), the “DENV2 inhibitory activity after trypsin exposure” value is recorded as “did not”. In data set [5], the “degradation in normal human serum (e-gel)” value is listed as “absent”. Further, the “viral replication when peptide added post-entry” value in the data set with DENV2 [6] is on record as “no inhibition of viral replication was observed”.
Consider heparin sulfate, for which the “binding of dengue virus to cells (control)” value with DENV2 [7] was “dramatically reduces binding of dengue virus to cells”.
